Experimental findings from patent publication US20250064941A1, “SIGLEC LIGANDS, CONJUGATES, AND METHODS OF USE THEREOF” (Osprey Biopharmaceuticals, Inc., priority 2023, published 2025) are described below.

Assay [1] addresses T1, mouse Siglec-2-Fc-Avi (CD22) (Mus musculus, UniProt P35329).
T1 construct: made in house
T1 sequence (P35329 22-708 limits assumed): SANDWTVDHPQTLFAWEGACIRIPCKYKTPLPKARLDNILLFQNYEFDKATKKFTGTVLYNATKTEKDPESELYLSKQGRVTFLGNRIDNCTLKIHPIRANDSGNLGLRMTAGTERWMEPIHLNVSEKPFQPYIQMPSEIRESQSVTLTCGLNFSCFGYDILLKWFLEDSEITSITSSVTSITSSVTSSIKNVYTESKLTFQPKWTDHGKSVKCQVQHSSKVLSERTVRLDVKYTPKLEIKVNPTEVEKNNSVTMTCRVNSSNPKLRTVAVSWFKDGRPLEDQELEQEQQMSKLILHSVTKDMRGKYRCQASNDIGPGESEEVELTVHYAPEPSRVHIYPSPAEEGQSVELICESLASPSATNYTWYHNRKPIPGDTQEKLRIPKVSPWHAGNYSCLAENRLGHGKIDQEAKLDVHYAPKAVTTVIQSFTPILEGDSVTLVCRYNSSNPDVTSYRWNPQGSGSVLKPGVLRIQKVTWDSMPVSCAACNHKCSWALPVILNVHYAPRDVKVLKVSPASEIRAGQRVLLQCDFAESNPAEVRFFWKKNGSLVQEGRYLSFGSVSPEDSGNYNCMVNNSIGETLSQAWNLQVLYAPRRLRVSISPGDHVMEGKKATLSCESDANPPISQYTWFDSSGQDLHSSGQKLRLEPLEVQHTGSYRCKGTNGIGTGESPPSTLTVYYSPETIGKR
As to the kind of experiment: SPR binding affinity to mouse CD22. To be noted: steady-state analysis. The procedure, abridged: (§1)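 Using a Biacore 8K, compounds were tested against biotinylated CD22 captured after sialidase treatment. The running buffer held 1% DMSO, corrected with a 0.5–2% DMSO series. Affinity was derived by steady-state analysis.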

Assay [2] deals with T2, human Siglec-2/CD22 protein (Homo sapiens, UniProt P20273).
T2 construct: purchased Acro Biosystems SI2-H82E3
T2 sequence (P20273 20-847): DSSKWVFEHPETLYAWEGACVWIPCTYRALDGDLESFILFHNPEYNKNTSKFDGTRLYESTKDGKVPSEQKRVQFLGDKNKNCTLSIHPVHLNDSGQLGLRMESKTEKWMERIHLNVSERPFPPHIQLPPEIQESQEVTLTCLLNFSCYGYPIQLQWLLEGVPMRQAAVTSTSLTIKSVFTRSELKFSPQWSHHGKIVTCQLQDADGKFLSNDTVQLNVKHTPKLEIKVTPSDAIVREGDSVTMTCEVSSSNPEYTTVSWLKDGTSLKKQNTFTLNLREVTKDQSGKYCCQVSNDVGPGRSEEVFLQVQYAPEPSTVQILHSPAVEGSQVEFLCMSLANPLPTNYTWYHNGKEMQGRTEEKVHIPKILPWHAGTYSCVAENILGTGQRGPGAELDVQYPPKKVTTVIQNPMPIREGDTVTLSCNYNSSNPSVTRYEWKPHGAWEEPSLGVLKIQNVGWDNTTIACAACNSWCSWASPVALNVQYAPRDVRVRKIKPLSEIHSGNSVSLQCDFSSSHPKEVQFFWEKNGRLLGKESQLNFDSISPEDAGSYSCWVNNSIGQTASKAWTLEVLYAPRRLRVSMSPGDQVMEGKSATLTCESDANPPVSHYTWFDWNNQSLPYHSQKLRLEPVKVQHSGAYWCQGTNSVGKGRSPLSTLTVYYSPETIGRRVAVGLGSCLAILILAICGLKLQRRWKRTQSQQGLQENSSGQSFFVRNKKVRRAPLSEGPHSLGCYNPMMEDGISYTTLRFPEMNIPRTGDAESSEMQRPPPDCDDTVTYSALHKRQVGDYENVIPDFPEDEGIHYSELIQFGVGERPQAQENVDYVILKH
As to the kind of experiment: SPR binding affinity to human CD22. To be noted: steady-state analysis. A digest of the protocol:
as §1

Assay [3] concerns the target cynomolgus Siglec-2/CD22 (Macaca fascicularis, UniProt A0A2K5WCZ6). As to the kind of experiment: biochemical. The format is binding. The note with it: SPR, steady-state analysis; read-out: Affinity cyno CD22. A digest of the protocol:
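SPR with desialylated (SialoExo, 4 h, 37° C.) cynomolgus CD22 amine-coupled to a CM5 chip. Running buffer 10 mM HEPES, 150 mM NaCl, 0.05% Tween-20, pH 7.5, 1% DMSO, with solvent correction; 120 s dissociation. Affinities from steady-state analysis.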

Sequence of cynomolgus Siglec-2/CD22 (A0A2K5WCZ6 entry or part of it): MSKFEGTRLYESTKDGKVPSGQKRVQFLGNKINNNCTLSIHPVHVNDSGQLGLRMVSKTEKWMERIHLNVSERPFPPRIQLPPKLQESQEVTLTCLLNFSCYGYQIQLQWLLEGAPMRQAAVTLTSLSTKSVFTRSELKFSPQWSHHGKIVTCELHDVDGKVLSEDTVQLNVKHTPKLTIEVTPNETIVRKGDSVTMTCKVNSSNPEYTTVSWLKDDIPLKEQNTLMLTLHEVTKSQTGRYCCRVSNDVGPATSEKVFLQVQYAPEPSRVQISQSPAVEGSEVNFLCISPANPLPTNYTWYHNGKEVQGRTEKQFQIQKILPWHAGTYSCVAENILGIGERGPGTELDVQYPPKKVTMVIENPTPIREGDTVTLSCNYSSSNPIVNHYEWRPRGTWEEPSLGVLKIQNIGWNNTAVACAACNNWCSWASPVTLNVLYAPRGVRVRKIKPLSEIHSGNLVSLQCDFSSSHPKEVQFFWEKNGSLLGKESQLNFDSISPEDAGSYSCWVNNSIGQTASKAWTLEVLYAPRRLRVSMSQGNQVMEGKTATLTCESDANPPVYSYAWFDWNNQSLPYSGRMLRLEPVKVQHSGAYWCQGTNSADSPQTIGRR

Take `CC(=O)NCCOCCOCCOCCOCCNC(=O)CCCCCCO[C@]1(C(=O)O)C[C@H](O)[C@@H](NC(=O)CO)[C@H]([C@H](O)[C@H](O)CNC(=O)Cc2ccc(-c3nnn[nH]3)cc2)O1` [Cpd. 266, (2R,4S,5R,6R)-6-((1R,2R)-3-(2-(4-(1H-tetrazol-5-yl)phenyl)acetamido)-1,2-dihydroxypropyl)-2-((2,19-dioxo-6,9,12,15-tetraoxa-3,18-diazapentacosan-25-yl)oxy)-4-hydroxy-5-(2-hydroxyacetamido) tetrahydro-2H-pyran-2-carboxylic acid]: the Kd in assay [1] was 1 to 10 µM; in assay [2], under 1000 nM; in assay [3], under 1000 nM.

With `C#CCCCCCCO[C@]1(C(=O)O)C[C@H](O)[C@@H](NC(=O)CO)[C@H]([C@H](O)[C@H](O)CNC(=O)c2ccc(Cl)cc2)O1` [Cpd. 267, (2R,4S,5R,6R)-6-((1R,2R)-3-(4-chlorobenzamido)-1,2-dihydroxypropyl)-4-hydroxy-5-(2-hydroxyacetamido)-2-(oct-7-yn-1-yloxy) tetrahydro-2H-pyran-2-carboxylic acid], the results for the Kd in assay [1], in assay [2] and in assay [3] were 1 to 10 µM, under 1000 nM and under 1000 nM, respectively.
